# Test results: patent US7776883B2, “Quinolin-4-ones as inhibitors of retroviral integrase for the treatment of HIV, AIDS and AIDS related complex (ARC)” (The United States of America as represented by the …, priority 2004, dated 2010)
# Test system: HIV-1, IIIB strain
# Experiment: Inhibition of HIV-1-induced cytopathicity in acutely infected MT-4 cells (MTT method)
# Type: cell-based
# Details: Human immunodeficiency virus 1, IIIB, MT4, 96 h, 4-day incubation, read-out: 50% effective concentration value (EC50)
# Procedure: Several of the compounds disclosed herein were tested for their ability to inhibit HIV cell multiplication. The compounds were solubilized in dimethyl sulfoxide at 200 mM and then diluted into culture medium. MT-4, C8166, H9/IIIB cells were grown at 37° C. in a 5% CO2 atmosphere in RPMI 1640 medium, supplemented with 10% fetal calf serum (FCS), 100 IU/mL penicillin G and 100 μg/mL streptomycin. Cell cultures were checked periodically for the absence of mycoplasma contamination with a MycoTect Kit (Gibco). Human immunodeficiency viruses type-1 (HIV-1, IIIB strain) were obtained from supernatants of persistently infected H9/IIIB. HIV-1 stock solutions had titres of 4.5×10^6 50% cell culture infectious dose (CCID50)/mL. Titration of HIV-1 was performed in C8166 cells by the standard limiting dilution method (dilution 1:2, four replica wells/dilution) in 96-well plates. The infectious virus titer was determined by light microscope scoring of cytopathicity after 4 days of incubation and the virus titers were expressed as CCID50/mL.
# Activity of the compounds against HIV-1 multiplication in acutely infected cells was based on the inhibition of virus-induced cytopathicity in MT-4 cells. Briefly, 50 μL of culture medium containing 1×10^4 cells were added to each well of flat-bottom microtiter trays containing 50 μL of culture medium with or without various concentrations of the test compounds. Then 20 μL of an HIV-1 suspension containing 100 CCID50 was added. After a 4-day incubation at 37° C., the number of viable cells was determined by the 3-(4,5-dimethylthiazol-[…])-2,5-diphenyltetrazolium bromide (MTT) method (Pauwels, R.; Balzarini, J.; Baba, M.; Snoeck, R.; Schols, D.; Herdewijn, P.; Desmyster, J.; De Clercq, E. J. Virol. Methods 1988, 20, 309-321). Cytotoxicity of the compounds was evaluated in parallel with their antiviral activity, and was based on the viability of mock-infected cells, as monitored by the MTT method.
row,SMILES,EC50 [µM]
1,"CCOC(=O)C(=O)CC(=O)c1cn(Cc2ccc(F)cc2)c2ccccc2c1=O [RDS1624, 4-[1-(4-fluorophenyl)methyl-1,4-dihydro-4-oxoquinolin-3-yl]-2,4-dioxobutanoic acid ethyl ester]",3.5
2,"O=C(O)C(=O)CC(=O)c1cn(Cc2ccc(F)cc2)c2ccccc2c1=O [RDS1625, 4-[1-(4-fluorophenyl)methyl-1,4-dihydro-4-oxoquinolin-3-yl]-2,4-dioxobutanoic acid]",40
3,CCOC(=O)C(=O)CC(=O)c1cn(Cc2ccc(F)cc2)c2ccc(Cl)cc2c1=O [RDS1755],5

# Test system: not given
# Experiment: not given
# Details: not given
row,SMILES,melting point [°C]
1,"O=C(O)C(=O)CC(=O)c1cn(Cc2ccc(F)cc2)c2ccccc2c1=O [RDS1625, 4-[1-(4-fluorophenyl)methyl-1,4-dihydro-4-oxoquinolin-3-yl]-2,4-dioxobutanoic acid]",207 to 209
2,"CCOC(=O)C(=O)CC(=O)c1cn(Cc2cccc(F)c2)c2ccccc2c1=O [RDS1986, 4-[1-(3-Fluorophenyl)methyl-1,4-dihydro-4-oxoquinolin-3-yl]-2,4-dioxobutanoic acid ethyl ester]",174 to 175
3,"O=C(O)C(=O)CC(=O)c1cn(Cc2cccc(F)c2)c2ccccc2c1=O [RDS1987, 4-[1-(3-Fluorophenyl)methyl-1,4-dihydro-4-oxoquinolin-3-yl]-2,4-dioxobutanoic acid]",158 to 159
4,"CCOC(=O)C(=O)CC(=O)c1cn(Cc2ccccc2F)c2ccccc2c1=O [RDS1989, 4-[1-(2-Fluorophenyl)methyl-1,4-dihydro-4-oxoquinolin-3-yl]-2,4-dioxobutanoic acid ethyl ester]",152 to 153
5,"O=C(O)C(=O)CC(=O)c1cn(Cc2ccccc2F)c2ccccc2c1=O [RDS1990, 4-[1-(2-Fluorophenyl)methyl-1,4-dihydro-4-oxoquinolin-3-yl]-2,4-dioxobutanoic acid]",172 to 174
6,"CCOC(=O)C(=O)CC(=O)c1cn(Cc2ccccc2)c2ccccc2c1=O [RDS1992, 4-(1-Phenylmethyl-1,4-dihydro-4-oxoquinolin-3-yl)-2,4-dioxobutanoic acid ethyl ester]",141 to 142
7,"O=C(O)C(=O)CC(=O)c1cn(Cc2ccccc2)c2ccccc2c1=O [RDS1993, 4-(1-Phenylmethyl-1,4-dihydro-4-oxoquinolin-3-yl)-2,4-dioxobutanoic acid]",141 to 142
8,"CCOC(=O)C(=O)CC(=O)c1cn(Cc2ccc3ccccc3n2)c2ccccc2c1=O [RDS1999, 4-[1-(2-Quinolinyl)methyl-1,4-dihydro-4-oxoquinolin-3-yl]-2,4-dioxobutanoic acid ethyl ester]",237 to 238
9,"O=C(O)C(=O)CC(=O)c1cn(Cc2ccc3ccccc3n2)c2ccccc2c1=O [RDS2000, 4-[1-(2-Quinolinyl)methyl-1,4-dihydro-4-oxoquinolin-3-yl]-2,4-dioxobutanoic acid]",> 300
10,"CCOC(=O)C(=O)CC(=O)c1cn(Cc2ccc(Cl)cc2)c2ccccc2c1=O [RDS2011, 4-[1-(4-Chlorophenyl)methyl-1,4-dihydro-4-oxoquinolin-3-yl]-2,4-dioxobutanoic acid ethyl ester]",174 to 176
11,"O=C(O)C(=O)CC(=O)c1cn(Cc2ccc(Cl)cc2)c2ccccc2c1=O [RDS2012, 4-[1-(4-Chlorophenyl)methyl-1,4-dihydro-4-oxoquinolin-3-yl]-2,4-dioxobutanoic acid]",177 to 179
12,"CCOC(=O)C(=O)CC(=O)c1cn(Cc2ccc([N+](=O)[O-])cc2)c2ccccc2c1=O [RDS2017, 4-[1-(4-Nitrophenyl)methyl-1,4-dihydro-4-oxoquinolin-3-yl]-2,4-dioxobutanoic acid ethyl ester]",175 to 176
13,"O=C(O)C(=O)CC(=O)c1cn(Cc2ccc([N+](=O)[O-])cc2)c2ccccc2c1=O [RDS2018, 4-[1-(4-Nitrophenyl)methyl-1,4-dihydro-4-oxoquinolin-3-yl]-2,4-dioxobutanoic acid]",230 to 232
14,"CCOC(=O)C(=O)CC(=O)c1cn(Cc2ccc(F)cc2)c2cc(F)ccc2c1=O [RDS2021, 4-[1-(4-Fluorophenyl)methyl-7-fluoro-1,4-dihydro-4-oxoquinolin-3-yl]-2,4-dioxobutanoic acid ethyl ester]",151 to 152
15,"O=C(O)C(=O)CC(=O)c1cn(Cc2ccc(F)cc2)c2cc(F)ccc2c1=O [RDS2022, 4-[1-(4-Fluorophenyl)methyl-7-fluoro-1,4-dihydro-4-oxoquinolin-3-yl]-2,4-dioxobutanoic acid]",162 to 163
16,"CCOC(=O)C(=O)CC(=O)c1cn(Cc2ccc(OC)cc2)c2ccccc2c1=O [RDS2034, 4-[1-(4-Methoxyphenyl)methyl-1,4-dihydro-4-oxoquinolin-3-yl]-2,4-dioxobutanoic acid ethyl ester]",154 to 156
17,"COc1ccc(Cn2cc(C(=O)CC(=O)C(=O)O)c(=O)c3ccccc32)cc1 [RDS2035, 4-[1-(4-Methoxyphenyl)methyl-1,4-dihydro-4-oxoquinolin-3-yl]-2,4-dioxobutanoic acid]",149 to 150
18,"CCOC(=O)C(=O)CC(=O)c1cn(Cc2ccc(F)cc2)c2ccc(F)cc2c1=O [RDS2077, 4-[1-(4-Fluorophenyl)methyl-6-fluoro-1,4-dihydro-4-oxoquinolin-3-yl]-2,4-dioxobutanoic acid ethyl ester]",152 to 153
19,"O=C(O)C(=O)CC(=O)c1cn(Cc2ccc(F)cc2)c2ccc(F)cc2c1=O [RDS2078, 4-[1-(4-Fluorophenyl)methyl-6-fluoro-1,4-dihydro-4-oxoquinolin-3-yl]-2,4-dioxobutanoic acid]",183 to 184
